Source: PubChem BioAssay AID1918933 (Molecular Pharmacology Branch, DTP, NCI, 2023)
“And” between values parts separate entries of the source, which are not always exact repeats. Equal entries are not always repeated.

System: 186277-243-T-J2-PDC complex spheroid viability
Test: Anticancer human tumor 186277-243-T-J2-PDC patient-derived colon adenocarcinoma cell line growth inhibition
Conditions: for viability, T/C: stronger effect = lower value
Excerpt: Multicellular complex tumor spheroid response to LSD1 Inhibitor Iadademstat in combination with a variety of drugs and investigational agents in selected tumor cell lines
The current study was undertaken to assess response to LSD1 inhibitors in combination with standard-of-care drugs and investigational agents in solid tumor complex spheroid models as well as in the K-562 leukemia. Complex spheroids include a stromal component modeled by human endothelial cells (HUVEC) and fibroblasts modeled by human mesenchymal stem cells (MSCs). The concentration ranges selected for each drug and investigational agent were based upon clinically achievable concentrations if the clinical Cmax of the agent was known.
Compounds. The drugs and investigational agents used in this study are listed on Table 1. All of the agents used, including staurosporine (NSC755774) and gemcitabine (NSC613327), were obtained from the Developmental Therapeutics Program, NCI. FDA-approved anticancer drugs are available from the NCI at http://dtp.nci.nih.gov/branches/dscb/oncology_drugset_explanation.html. Drugs and investigational agents were >95% pure by proton nuclear magnetic resonance (NMR) and liquid chromatography/mass spectrometry (LC/MS). Stock solutions were prepared at 400x in DMSO, stored at -70 degrees C, and diluted in fresh medium prior to their use. The final concentration of DMSO in cell culture wells never exceeded 0.25% (v/v). The FDA-approved anticancer drug set is available from the Developmental Therapeutics Program at https://dtp.cancer.gov/organization/dscb/obtaining/available_plates.htm. All drugs and investigational agents were tested over a range starting from a high concentration at or near the clinical Cmax and decreasing in half-log increments. If the clinical Cmax for an agent had not been determined, the highest concentration tested was 10 microM.
Cell Lines. The patient-derived cancer cell (PDC) lines: 292921-168-R-J2-PDC, K24384-001-R-PDC, and 521955-158-R2-J5-PDC pancreatic carcinomas, 556581-035-R-J1 ovarian carcinoma, 324938-238-R-J1-PDC, 855422-203-R-J1-PDC and 883617-216-R-J1-PDC urothelial bladder carcinomas, 743489-274-T-PDC renal cell carcinoma, 138582-R-J1 Merkel cell tumor, K60290-347-R-J1 and K57222-313-R-J1-PDC glioblastomas, 653999-131-R-J2-PDC, LG0703-F948-PDC, and 349418-098-R-PDC non-small cell lung carcinomas, 885512-296-R-J2-PDC, 171881-019-R-J1-PDC breast carcinomas and 186277-243-T-J2-PDC and 233499-124-R-J2-PDC colon carcinomas were obtained from the NCI Patient-Derived Models Repository (PDMR, https://pdmr.cancer.gov). The established cell lines NCI/ADR-RES (RRID:CVCL_14520 and OVCAR-5 (RRID:CVCL_1628) ovarian carcinomas, 786-O (RRID:CVCL_1051) and A498 (RRID:CVCL_A498) renal cell carcinoma, NCI-H211 (ATCC, cat. CRL-5824; RRID:CVCL_1529), NCI-H196 (ATCC, cat. CRL-5823, RRID:CVCL_1509), SW 1271 (ATCC, cat. CRL-2177, RRID:CVCL_1716) and NCI-H1876 (ATCC, cat. CRL-5902, RRID:CVCL_1503) small cell lung carcinomas, MDA-MB-231 (RRID:CVCL_0062) and MDA-MB-468 (RRID:CVCL_0419)breast carcinomas (10-12). Pooled donor human umbilical vein endothelial cells (HUVEC, Lonza, cat. CC-2519) and human mesenchymal stem cells (hMSC, Lonza, cat. PT-2501) were purchased from Lonza (Walkersville, MD).
Cell Culture. All cells were maintained in an incubator at 37 degrees C and 5% CO2 with 95% humidity. The PDC lines were cultured according to standard operating procedures established by the NCI PDMR (https://pdmr.cancer.gov). Briefly all PDCs were thawed and cultured in Matrigel-coated flasks prepared with a working solution of 1X Ham's F-12 nutrient mix, without supplementation (Invitrogen, Waltham, MA, cat. 11765054), 100 U/mL penicillin-streptomycin (Invitrogen, cat. 15140122), and 2.5% Matrigel (Corning Inc., Corning, NY, cat. 354248) for the first three passages. […]
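Note: 7 day exposure to compounds.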
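Throughout, for viability, T/C: 100% = DMSO vehicle control viability.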

SMILES: CC(C)c1c(-c2ccccc2)nc2c(C#N)c[nH]n2c1=O
- viability, T/C (compound 0.0316 µM): 94.8% and 108%
- viability, T/C (compound 0.1 µM): 93.3% and 97.7%
- viability, T/C (compound 0.316 µM): 101% and 99.1%
- viability, T/C (compound 1 µM): 97.6% and 97.4%
- viability, T/C (compound 3.16 µM): 96% and 82.9%
- viability, T/C (compound 10 µM): 85.3% and 72.9%
- IC50 (curve of compound): > 10 µM

SMILES: CC1(C)CCC(CN2CCN(c3ccc(C(=O)NS(=O)(=O)c4ccc(NCC5CCOCC5)c([N+](=O)[O-])c4)c(Oc4cnc5[nH]ccc5c4)c3)CC2)=C(c2ccc(Cl)cc2)C1
- viability, T/C (compound 0.0316 µM): 100% and 109%
- viability, T/C (compound 0.1 µM): 108% and 90.4%
- viability, T/C (compound 0.316 µM): 93% and 94.6%
- viability, T/C (compound 1 µM): 95.7% and 97.7%
- viability, T/C (compound 3.16 µM): 52.1% and 28.3%
- viability, T/C (compound 10 µM): 8.65% and 0.19%
- IC50 (curve of compound): 3.36 µM and 2.21 µM

SMILES: CC1COCCN1c1cc(C2(S(C)(=N)=O)CC2)nc(-c2ccnc3[nH]ccc23)n1 (stereo not drawn)
- viability, T/C (compound 0.0316 µM): 103% and 87.2%
- viability, T/C (compound 0.1 µM): 93.4% and 94.7%
- viability, T/C (compound 0.316 µM): 44.4% and 91.3%
- viability, T/C (compound 1 µM): 14.2% and 48%
- viability, T/C (compound 3.16 µM): 8.73% and 10%
- viability, T/C (compound 10 µM): 9.16% and 5.79%
- IC50 (curve of compound): 0.278 µM and 0.952 µM

SMILES: CCN(c1cc(-c2ccc(CN3CCOCC3)cc2)cc(C(=O)NCc2c(C)cc(C)[nH]c2=O)c1C)C1CCOCC1
- viability, T/C (compound 0.00949 µM): 106% and 93.9%
- viability, T/C (compound 0.03 µM): 99.2% and 112%
- viability, T/C (compound 0.0949 µM): 108% and 96.8%
- viability, T/C (compound 0.3 µM): 99.2% and 104%
- viability, T/C (compound 0.949 µM): 99.2% and 108%
- viability, T/C (compound 3 µM): 101% and 30.2%
- IC50 (curve of compound): > 3 µM and 2.2 µM

SMILES: COc1ccc([C@@H](O)c2cc(-c3ncnc4cc(N5CCOCC5)ccc34)c(F)cc2Cl)nn1
- viability, T/C (compound 0.0316 µM): 103% and 101%
- viability, T/C (compound 0.1 µM): 104% and 100%
- viability, T/C (compound 0.316 µM): 87.8% and 101%
- viability, T/C (compound 1 µM): 84.4% and 100%
- viability, T/C (compound 3.16 µM): 46.7% and 64.8%
- viability, T/C (compound 10 µM): 3.51% and 12.2%
- IC50 (curve of compound): 2.97 µM and 4.37 µM

SMILES: NC1CC1c1ccc(-c2cccc(O)c2)cc1 (stereo not drawn)
- viability, T/C (compound 0.1 µM): 101%
- viability, T/C (compound 0.316 µM): 102% [middle of 25 runs]
- viability, T/C (compound 3.16 µM): 107% [middle of 25 runs]
- IC50 (compound alone, run of 02/01/2022): > 10 µM

SMILES: NC1CCC(NC2CC2c2ccccc2)CC1 (stereo not drawn)
- viability, T/C (compound 0.316 µM): 104% and 114%
- IC50 (compound alone, run of 01/18/2022): > 10 µM

SMILES: O=C(c1cc(Cc2n[nH]c(=O)c3ccccc23)ccc1F)N1CCN(C(=O)C2CC2)CC1
- viability, T/C (compound 0.0316 µM): 100% and 90.9%
- viability, T/C (compound 0.1 µM): 102% and 106%
- viability, T/C (compound 0.316 µM): 105% and 103%
- viability, T/C (compound 1 µM): 93.5% and 95.7%
- viability, T/C (compound 3.16 µM): 69.7% and 113%
- viability, T/C (compound 10 µM): 54.8% and 86.6%
- IC50 (curve of compound): > 10 µM

SMILES: Nc1ncn(C2CC(O)C(CO)O2)c(=O)n1 (stereo not drawn) + NC1CC1c1ccc(-c2cccc(O)c2)cc1
- IC50 (curve of first compound, second compound 0.1 µM): > 1 µM
- IC50 (curve of first compound, second compound 0.316 µM): > 1 µM
- IC50 (curve of first compound, second compound 1 µM): > 1 µM
- IC50 (curve of first compound, second compound 3.16 µM): > 1 µM
- IC50 (curve of first compound, second compound 10 µM): > 1 µM
- viability, T/C (second compound 0.1 µM, first compound 0.00316 µM): 108%
- viability, T/C (second compound 0.1 µM, first compound 0.01 µM): 103%
- viability, T/C (second compound 0.1 µM, first compound 0.0316 µM): 112%
- viability, T/C (second compound 0.1 µM, first compound 0.1 µM): 106%
- viability, T/C (second compound 0.1 µM, first compound 0.316 µM): 148%
- viability, T/C (second compound 0.1 µM, first compound 1 µM): 159%
- viability, T/C (second compound 0.316 µM, first compound 0.00316 µM): 100%
- viability, T/C (second compound 0.316 µM, first compound 0.01 µM): 102%
- viability, T/C (second compound 0.316 µM, first compound 0.0316 µM): 114%
- viability, T/C (second compound 0.316 µM, first compound 0.1 µM): 138%
- viability, T/C (second compound 0.316 µM, first compound 0.316 µM): 143%
- viability, T/C (second compound 0.316 µM, first compound 1 µM): 150%
- viability, T/C (second compound 1 µM, first compound 0.00316 µM): 104%
- viability, T/C (second compound 1 µM, first compound 0.01 µM): 109%
- viability, T/C (second compound 1 µM, first compound 0.0316 µM): 107%
- viability, T/C (second compound 1 µM, first compound 0.1 µM): 119%
- viability, T/C (second compound 1 µM, first compound 0.316 µM): 137%
- viability, T/C (second compound 1 µM, first compound 1 µM): 157%
- viability, T/C (second compound 3.16 µM, first compound 0.00316 µM): 100%
- viability, T/C (second compound 3.16 µM, first compound 0.01 µM): 95.5%
- viability, T/C (second compound 3.16 µM, first compound 0.0316 µM): 97.3%
- viability, T/C (second compound 3.16 µM, first compound 0.1 µM): 121%
- viability, T/C (second compound 3.16 µM, first compound 0.316 µM): 140%
- viability, T/C (second compound 3.16 µM, first compound 1 µM): 162%
- viability, T/C (second compound 10 µM, first compound 0.00316 µM): 110%
- viability, T/C (second compound 10 µM, first compound 0.01 µM): 107%
- viability, T/C (second compound 10 µM, first compound 0.0316 µM): 98.6%
- viability, T/C (second compound 10 µM, first compound 0.1 µM): 112%
- viability, T/C (second compound 10 µM, first compound 0.316 µM): 124%
- viability, T/C (second compound 10 µM, first compound 1 µM): 148%
